Test results: PubChem BioAssay AID248 (DTP/NCI, 2004)
Toxic doses and inconclusive results are not listed. Cut-off read from the data, not from the text of the source: active = T/C of 150% or more; inactive = T/C below 125%.

System: L1210 leukemia ip in BDF1 mice, survival T/C
Experiment: NCI In Vivo Anticancer Drug Screen. Data for tumor model L1210 Leukemia (intraperitoneal) in B6D2F1 (BDF1) mice
Settings: endpoint: mean survival time, higher = longer survival
In short: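 Mice bearing the transplanted tumor received compound or vehicle. Survival of the treated group was divided by that of the vehicle-treated control group to give the ratio.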

[1] = dose: 100.0 mg/kg/injection, schedule: Q04DX003 (ip), vehicle: other
[2] = dose: 200.0 mg/kg/injection, schedule: Q04DX003 (ip), vehicle: other
[3] = dose: 400.0 mg/kg/injection, schedule: Q04DX003 (ip), vehicle: other
[4] = dose: 50.0 mg/kg/injection, schedule: Q04DX003 (ip), vehicle: Klucel (hydroxypropylcellulose) (HPC)
[5] = dose: 200.0 mg/kg/injection, schedule: Q04DX003 (ip), vehicle: Klucel (hydroxypropylcellulose) (HPC)
[6] = dose: 100.0 mg/kg/injection, schedule: Q04DX003 (ip), vehicle: saline with Tween-80
[7] = dose: 200.0 mg/kg/injection, schedule: Q04DX003 (ip), vehicle: saline with Tween-80
[8] = dose: 400.0 mg/kg/injection, schedule: Q04DX003 (ip), vehicle: saline with Tween-80
[9] = dose: 100.0 mg/kg/injection, schedule: Q04DX003 (ip), vehicle: saline
[10] = dose: 200.0 mg/kg/injection, schedule: Q04DX003 (ip), vehicle: saline
[11] = dose: 100.0 mg/kg/injection, schedule: Q01DX009 (ip), vehicle: saline
[12] = dose: 200.0 mg/kg/injection, schedule: Q01DX009 (ip), vehicle: saline
[13] = dose: 400.0 mg/kg/injection, schedule: Q04DX002 (ip), vehicle: saline with Tween-80
[14] = dose: 100.0 mg/kg/injection, schedule: Q01DX009 (ip), vehicle: Klucel (hydroxypropylcellulose) (HPC)
[15] = dose: 200.0 mg/kg/injection, schedule: Q01DX009 (ip), vehicle: Klucel (hydroxypropylcellulose) (HPC)
[16] = dose: 400.0 mg/kg/injection, schedule: Q01DX009 (ip), vehicle: Klucel (hydroxypropylcellulose) (HPC)
[17] = dose: 100.0 mg/kg/injection, schedule: Q01DX001 (ip), vehicle: saline
[18] = dose: 200.0 mg/kg/injection, schedule: Q01DX001 (ip), vehicle: saline
[19] = dose: 400.0 mg/kg/injection, schedule: Q01DX001 (ip), vehicle: saline
[20] = dose: 50.0 mg/kg/injection, schedule: Q01DX009 (ip), vehicle: saline with Tween-80
[21] = dose: 100.0 mg/kg/injection, schedule: Q01DX009 (ip), vehicle: saline with Tween-80
[22] = dose: 200.0 mg/kg/injection, schedule: Q01DX009 (ip), vehicle: saline with Tween-80

Measured: T/C

O=C(C1=CC(c2ccccc2)=Nc2ccccc2N1)c1ccccc1
inactive: [1] 89 % of control | [2] 110 % of control | [3] 94 % of control

CN(N)P(=O)(Nc1ccccc1)Nc1ccccc1
inactive: [4] 98 % of control | dose: 75.0 mg/kg/injection, schedule: Q01DX009 (ip), vehicle: Klucel (hydroxypropylcellulose) (HPC) 102 % of control | dose: 100.0 mg/kg/injection, schedule: Q04DX003 (ip), vehicle: Klucel (hydroxypropylcellulose) (HPC) 91 % of control | dose: 150.0 mg/kg/injection, schedule: Q01DX009 (ip), vehicle: Klucel (hydroxypropylcellulose) (HPC) 115 % of control | [5] 96 % of control | dose: 300.0 mg/kg/injection, schedule: Q01DX009 (ip), vehicle: Klucel (hydroxypropylcellulose) (HPC) 100 % of control

Fc1ccc(NC(=S)SCc2ccc(Cl)cc2)cc1F
inactive: [6] 102 % of control | [7] 91 % of control | [8] 102 % of control

CC(C)C(C#N)c1ccccc1 (stereo not drawn)
inactive: dose: 12.5 mg/kg/injection, schedule: Q01DX009 (ip), vehicle: Klucel (hydroxypropylcellulose) (HPC) 97 % of control | dose: 25.0 mg/kg/injection, schedule: Q01DX009 (ip), vehicle: Klucel (hydroxypropylcellulose) (HPC) 100 % of control | dose: 25.0 mg/kg/injection, schedule: Q04DX003 (ip), vehicle: Klucel (hydroxypropylcellulose) (HPC) 96 % of control | dose: 50.0 mg/kg/injection, schedule: Q01DX009 (ip), vehicle: Klucel (hydroxypropylcellulose) (HPC) 97 % of control | [4] 98 % of control

FC(F)(F)c1nc(Cl)c2cn[nH]c2n1
inactive: dose: 44.0 mg/kg/injection, schedule: Q01DX Z (ip), vehicle: methylcellulose (MC) 104 % of control | dose: 66.0 mg/kg/injection, schedule: Q01DX Z (ip), vehicle: methylcellulose (MC) 103 % of control | dose: 100.0 mg/kg/injection, schedule: Q01DX Z (ip), vehicle: methylcellulose (MC) 100 % of control

CO/C(N)=N\C(=O)NC1CC(OC(=O)c2ccc(C)cc2)C(COC(=O)c2ccc(C)cc2)O1 (stereo not drawn)
inactive: [9] 98 % of control | [10] 104 % of control | dose: 400.0 mg/kg/injection, schedule: Q04DX003 (ip), vehicle: saline 96 % of control

N=C(N=c1cc(C(=O)NC(=N)NC(=N)Nc2ccccc2)n(C(=N)NC(=N)Nc2ccccc2)c(C(=O)NC(=N)NC(=N)Nc2ccccc2)c1)NC(=N)Nc1ccccc1
inactive: [11] 105 % of control | [12] 94 % of control | dose: 400.0 mg/kg/injection, schedule: Q01DX009 (ip), vehicle: saline 87 % of control

CC(C)=CCC/C(C)=C/Cn1c(=O)cc[nH]c1=O
inactive: [1] 96 % of control | [2] 86 % of control | [3] 86 % of control

O=C(O)C1=CC2C3C=C(C(=O)O)C(C3)C2C1 (stereo not drawn)
inactive: dose: 100.0 mg/kg/injection, schedule: Q01DX001 (ip), vehicle: Klucel (hydroxypropylcellulose) (HPC) 96 % of control | dose: 200.0 mg/kg/injection, schedule: Q01DX001 (ip), vehicle: Klucel (hydroxypropylcellulose) (HPC) 96 % of control | dose: 400.0 mg/kg/injection, schedule: Q01DX001 (ip), vehicle: Klucel (hydroxypropylcellulose) (HPC) 97 % of control

CCC(=O)C(CCN(C)C)c1ccccn1 (stereo not drawn)
inactive: dose: 20.0 mg/kg/injection, schedule: Q01DX Z (ip), vehicle: saline 103 % of control | dose: 30.0 mg/kg/injection, schedule: Q01DX Z (ip), vehicle: saline 91 % of control | dose: 44.0 mg/kg/injection, schedule: Q01DX Z (ip), vehicle: saline 91 % of control | dose: 66.0 mg/kg/injection, schedule: Q01DX Z (ip), vehicle: saline 93 % of control

ClC1(Cl)C2/C=C/CCCCC21 (stereo not drawn)
inactive: dose: 100.0 mg/kg/injection, schedule: Q01DX005 (ip), vehicle: saline with Tween-80 105 % of control | dose: 100.0 mg/kg/injection, schedule: Q04DX002 (ip), vehicle: saline with Tween-80 92 % of control | dose: 200.0 mg/kg/injection, schedule: Q01DX005 (ip), vehicle: saline with Tween-80 92 % of control | dose: 200.0 mg/kg/injection, schedule: Q04DX002 (ip), vehicle: saline with Tween-80 113 % of control | dose: 400.0 mg/kg/injection, schedule: Q01DX005 (ip), vehicle: saline with Tween-80 92 % of control | [13] 95 % of control

COc1cc(OC)c(OC)cc1/C=C\c1ccnc2ccccc12
inactive: dose: 100.0 mg/kg/injection, schedule: Q01DX001 (ip), vehicle: carboxymethylcellulose (CMC) 105 % of control | [14] 98 % of control | dose: 200.0 mg/kg/injection, schedule: Q01DX001 (ip), vehicle: carboxymethylcellulose (CMC) 100 % of control | [15] 108 % of control | [5] 108 % of control | dose: 400.0 mg/kg/injection, schedule: Q01DX001 (ip), vehicle: carboxymethylcellulose (CMC) 109 % of control | [16] 114 % of control | dose: 400.0 mg/kg/injection, schedule: Q04DX003 (ip), vehicle: Klucel (hydroxypropylcellulose) (HPC) 108 % of control | dose: 800.0 mg/kg/injection, schedule: Q01DX009 (ip), vehicle: Klucel (hydroxypropylcellulose) (HPC) 112 % of control | dose: 800.0 mg/kg/injection, schedule: Q04DX003 (ip), vehicle: Klucel (hydroxypropylcellulose) (HPC) 110 % of control | dose: 1600.0 mg/kg/injection, schedule: Q04DX003 (ip), vehicle: Klucel (hydroxypropylcellulose) (HPC) 108 % of control

CN(C)P1(=O)N(C)CCN1C
inactive: [17] 100 % of control | [18] 98 % of control | [19] 94 % of control

c1ccc([CH2][Ge]([c]2ccccc2)([c]2ccccc2)[c]2ccccc2)cc1
inactive: dose: 25.6 mg/kg/injection, schedule: Q04DX002 (ip), vehicle: saline with Tween-80 89 % of control | dose: 64.0 mg/kg/injection, schedule: Q04DX002 (ip), vehicle: saline with Tween-80 93 % of control | [6] 104 % of control | dose: 160.0 mg/kg/injection, schedule: Q04DX002 (ip), vehicle: saline with Tween-80 89 % of control | [7] 96 % of control | [13] 89 % of control | [8] 102 % of control

C=CCCn1cc(C)c(=O)[nH]c1=O
inactive: [14] 103 % of control | [15] 116 % of control | [16] 100 % of control

C/C=C/C(=O)OCC (tested in a mixture with another compound)
inactive: [20] 97 % of control | [21] 93 % of control | [22] 93 % of control

O=C(c1c2c(nc3ccccc13)CCCC2)N1CCOCC1
inactive: [17] 100 % of control | [18] 97 % of control | [19] 97 % of control

CC(O)c1cccc(NC(=O)NC(C)(C)C)c1 (stereo not drawn)
inactive: [14] 102 % of control | [15] 107 % of control | [16] 113 % of control

COc1ccc(O)c(N=Nc2nccs2)c1
inactive: [20] 109 % of control | [21] 106 % of control | [22] 102 % of control

CC(C)C1(NC(=O)C2C=C3c4cccc5[nH]cc(c45)CC3N(C)C2)OC2(O)C3CCCN3C(=O)C(Cc3ccccc3)N2C1=O (stereo not drawn) (tested in a mixture with another compound)
inactive: [17] 107 % of control | [18] 102 % of control | [19] 100 % of control

CN1c2ccc(Cl)cc2C2(C(=O)NN)C(C(=O)NN)N(C3CCCCC3)C(=O)C12N (stereo not drawn)
inactive: [21] 97 % of control | [22] 107 % of control

CC(=O)c1c(OC(C)C(=O)O)ccc2ccccc12 (stereo not drawn)
inactive: [17] 98 % of control | [18] 101 % of control | [19] 107 % of control

C=CCNC(=O)/C=C/C(=O)O
inactive: [11] 95 % of control | [12] 93 % of control

CC(=O)SC(C)CC(=O)O (stereo not drawn)
inactive: [9] 106 % of control | [10] 101 % of control

O=S(Cc1ccc(Cl)cc1)C(Cl)(Cl)c1ccc(Cl)cc1 (stereo not drawn)
inactive: dose: 100.0 mg/kg/injection, schedule: Q04DX002 (ip), vehicle: Klucel (hydroxypropylcellulose) (HPC) 116 % of control | dose: 200.0 mg/kg/injection, schedule: Q04DX002 (ip), vehicle: Klucel (hydroxypropylcellulose) (HPC) 116 % of control | dose: 400.0 mg/kg/injection, schedule: Q04DX002 (ip), vehicle: Klucel (hydroxypropylcellulose) (HPC) 94 % of control
